The source of these data is ChEMBL document CHEMBL1201862, “PubChem BioAssay data set” (2004).

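Following 48 hours of exposure in 96-well plates, responses at five concentrations were used to interpolate endpoints linearly. GI50 marks 50% less growth.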 The source made the active and inactive calls. Cut-off read from the data, not from the text of the source: active = GI50 up to about 1.1 µM and inactive = higher.

What all share (experiment): NCI anticancer screen, dose series, 48 h
For assay [1], the system named is A498.
For assay [2], the system named is SK-MEL-2.
The test system of assay [3] is UACC-62.
Assay [4] concerns LOX IMVI.
Assay [5] has as its system Malme-3M.
Assay [6] deals with HCC 2998.
Assay [7] deals with CCRF-CEM.
Assay [8] deals with CAKI-1.
Assay [9] deals with SK-MEL-5.
Assay [10] has as its system SNB-75.
Assay [11] concerns HCT-15.
Assay [12] concerns OVCAR-3.
For assay [13], the system named is DU-145.
Assay [14] deals with NCI-H23.
In assay [15] the test system is OVCAR-4.
Assay [16] has as its system Hs-578T.
Assay [17] relates to BT-549.
Assay [18] relates to U-251.
The test system of assay [19] is SF-539.
Assay [20] relates to SNB-19.

In the case of `CCN(CC)CCCC(C)Nc1c2ccc(Cl)cc2nc2ccc(OC)cc12` (stereo not given), the GI50 in assay [1] was 2480 nM (inactive); in assay [2], 1670 nM (inactive); in [3], 1540 nM (inactive); in assay [4], 1070 nM (active); in [5], 1900 nM (inactive); in [6], 1360 nM (inactive). Moreover, the GI50 in [7] is 1000 nM (active); in assay [8] it was 1590 nM (inactive); in assay [9] it was 1710 nM (inactive); in [10] it was 1470 nM (inactive); in assay [11] it was 2290 nM; in [12], 2850 nM (inactive). Besides, the GI50 in assay [13] is 3560 nM (inactive); in assay [14], 1610 nM (inactive); in [15], 1650 nM (inactive); in assay [16] it was 3370 nM (inactive); in [17], 2470 nM (inactive); in assay [18] it was 1290 nM (inactive). Further, the GI50 in [19] is 1670 nM (inactive); in [20], 5360 nM (inactive).
